# Laboratory results as given in patent publication US20150336993A1, “MITOCHONDRIA-TARGETED THERANOSTIC AGENTS” (The Board of Trustees of the Leland Stanford Junior …, priority 2014, published 2015).
# Where two headings read alike, the source gives them in different places.
# Columns and labels:
# [1] = test system: U87MG cells; test: Cell uptake and localization by fluorescence microscopy in U87MG cells; type: cell-based, human; settings: 1 hour incubation, fluorescence signal in cells/PBS buffer, n=9
# Experimental: The data was obtained by calculating by the following equation: Fluorescence signal in cell lines/Fluorescence signal in PBS buffer and normalized to F16 in the U87MG cell line. n=9. Data are presented as mean±SD.
# Tumor cell uptake of all F16 related compounds were studied by incubating two cancer cell lines (U87MG and MDA-MB-231) with the probes for 1 hour and then imaging was performed with a fluorescent microscope. Meanwhile, to investigate the localization of the F16 derivatives, after incubation with the probes, cells were co-stained with the commercially available dye Mitotrack, which is widely used for mitochondria staining. […] Under eGFP filter set (ξex 450/490 nm, λem 515/565 nm), no significant autofluorescence of the cells were observed, making it convenient to study the relative uptake of the probes directly by comparing their fluorescence signals.
# We then investigated the uptake of all the probes in U87MG and MDA-MB-231 cells at 1 hour incubation by quantitative analysis of fluorescent signals intensity of all F16 related compounds in the cells. The cellular uptake experiments were repeated nine times, and the relative cellular uptakes ability of different probes were calculated by comparing their percentage of cellular fluorescent signals and then normalized by that of F16 (FIG. 4). […]
# [2] = test system: U87MG cells; test: Cell proliferation assay in U87MG cells (direct cell counting); type: cell-based, human; settings: for IC50: 3000 cells/well, incubated 4 days, viable cells directly counted, read-out: IC50 (half inhibitory concentration) against U87MG
# Experimental: Apart from the imaging studies, we then investigated anti-tumor activities of all F16 related compounds by studying their antiproliferative effects in U87MG and MDA-MB-231 cell lines. After exposure to 5 or 10 μM of the compounds in the cancer cells for 4 days, the cell proliferative ratios to the control were measured (see FIG. 5). […] The different antiproliferative activities imply that the antitumor potency of the F16 related compounds is cell-dependent. Meanwhile, substituents in F16 and F16-TPP analogues played distinct roles, for instance, introduction of a fluorine atom in F16 barely influences activity of FF16 (P>0.05), while substitution of fluorine and methyl groups apparently impacts F16-TPP analogues in the U87MG cell line at a higher concentration of 10 μM.
# (§1) To further confirm the relationship between cell uptake and antitumor activity, the half inhibitory concentrations (IC50) of these compounds against the U87MG cell line were measured. […] It should be noted that all these five compounds show minimum or even un-observable toxicity in the fibroblast cell line NIH 3T3 (IC50 all >100 μM, Table 1, FIG. 6), highlighting the treatment specificity of these mitochondrial targeted agents.
# (§2) Both U87MG and NIH 3T3 cell lines at a density of 3000 cells/well were incubated in 96-well plates overnight. The culture medium was replaced with 200 μL of culture medium in which the testing compound dispersed at various concentrations (0.5-200 μM). After incubation for 4 days, the viable cell numbers were checked and directly counted under microscopy (10×). A minimum of 1 mm×1 mm area was counted from each of at least three widely separated regions of cell culture. The cell proliferation rate was calculated by the following formula: cell proliferation rate (%)=(average cell number of sample wells/average cell number of control wells×100. The intact culture medium was evaluated as a control.
# [3] = test system: NIH 3T3 cells; test: Cell proliferation assay in NIH 3T3 cells (direct cell counting); type: cell-based, mouse; settings: NIH 3T3 fibroblasts, 3000 cells/well, incubated 4 days, viable cells directly counted, read-out: IC50 (half inhibitory concentration) against NIH 3T3
# Experimental: as §1, §2
SMILES,"Relative uptake in U87MG cells, normalized to F16 [1]","IC50 ([2]; Homo sapiens, U-87 MG, 96 h) [µM]","IC50 ([3]; Mus musculus, NIH3T3, 96 h) [µM]",IC50 [2] [µM],Improvement of bioactivity relative to F16 (U87MG IC50) ([2]; fluorine substitution in F16) [fold],IC50 [3] [µM]
"C[n+]1ccc(/C=C/c2c[nH]c3ccccc23)cc1.[I-] [F16, (E)-4-(1H-indol-3-ylvinyl)-N-methylpyridinium iodide, reference compound]",~1,36.5 ± 1.1,~100,–,–,–
"C[n+]1ccc(/C=C/c2c[nH]c3ccc(F)cc23)cc1.[I-] [FF16, (E)-4-(1H-5-fluro-indole-3-ylvinyl)-N-methylpyridinium iodide]",~1,–,–,28 ± 1.2,~1.3,~491
